In publication PMC9632963, “Preclinical characterization and phase I clinical trial of CT053PTSA targets MET, AXL, and VEGFR2 in patients with advanced solid tumors” (Frontiers in Immunology, 2022):

Tested on: patients with advanced solid tumors
Assay: Phase I trial: safety, tolerability, DLT, MTD (CTCAE v4.0)
Format: in vivo
Description: Eligible patients had at least one measurable lesion per RECIST v 1.1, Eastern Cooperative Oncology Group (ECOG) performance status of 0 or 1, and adequate hematological, renal, cardiac and hepatic functions. The primary objectives were to assess safety and tolerability as well as to determine the MTD, DLT, and dose recommended for further study. The secondary objectives were to assess the PK and preliminary efficacy of CT053PTSA.
An initial accelerated titration design was used in the 15 and 30 mg QD cohorts, and the “3+3” schema was used starting in the 60 mg QD cohort. […] The study protocol was approved by an institutional review board at Sun Yat-sen University Cancer Center. Written informed consent was obtained from all the patients before enrollment.
Descriptive statistics of safety are presented per CTCAE v4.0. Subjects who received at least one dose of CT053PTSA were considered eligible to be evaluated and included in safety analyses. […] According to the RECIST 1.1 criteria, imaging examinations were performed at each specified time point in the protocol. The antitumor activity was measured by RECIST1.1.

Cc1c(C(=O)Nc2ccc(Oc3ccnc4cc(OCC(C)(C)O)ccc34)c(F)c2)c(=O)n(-c2ccccc2)n1C [CT053PTSA]
Anaemia, All (15mg (n = 1)): 0 n (%) | Anaemia, ≥ G3 (15mg (n = 1)): 0 n (%) | Blood chloride decreased, All (15mg (n = 1)): 0 n (%) | Blood chloride decreased, ≥ G3 (15mg (n = 1)): 0 n (%) | Blood creatinine increased, All (15mg (n = 1)): 0 n (%) | Blood creatinine increased, ≥ G3 (15mg (n = 1)): 0 n (%) | Blood potassium decreased, All (15mg (n = 1)): 0 n (%) | Blood potassium decreased, ≥ G3 (15mg (n = 1)): 0 n (%) | Blood sodium decreased, All (15mg (n = 1)): 0 n (%) | Blood sodium decreased, ≥ G3 (15mg (n = 1)): 0 n (%) | Blood uric acid increased, All (15mg (n = 1)): 0 n (%) | Blood uric acid increased, ≥ G3 (15mg (n = 1)): 0 n (%) | Decreased appetite, All (15mg (n = 1)): 0 n (%) | Decreased appetite, ≥ G3 (15mg (n = 1)): 0 n (%) | Diarrhea, All (15mg (n = 1)): 0 n (%) | Diarrhea, ≥ G3 (15mg (n = 1)): 0 n (%) | Dizziness, All (15mg (n = 1)): 0 n (%) | Dizziness, ≥ G3 (15mg (n = 1)): 0 n (%) | Dry mouth, All (15mg (n = 1)): 0 n (%) | Dry mouth, ≥ G3 (15mg (n = 1)): 0 n (%) | Electrocardiogram QT prolonged, All (15mg (n = 1)): 0 n (%) | Electrocardiogram QT prolonged, ≥ G3 (15mg (n = 1)): 0 n (%) | Electrolyte imbalance, All (15mg (n = 1)): 0 n (%) | Electrolyte imbalance, ≥ G3 (15mg (n = 1)): 0 n (%) | Hemoglobin decreased, All (15mg (n = 1)): 0 n (%) | Hemoglobin decreased, ≥ G3 (15mg (n = 1)): 0 n (%) | Hypertension, All (15mg (n = 1)): 0 n (%) | Hypertension, ≥ G3 (15mg (n = 1)): 0 n (%) | Hyponatremia, All (15mg (n = 1)): 0 n (%) | Hyponatremia, ≥ G3 (15mg (n = 1)): 0 n (%) | Hypoparathyroidism, All (15mg (n = 1)): 0 n (%) | Hypoparathyroidism, ≥ G3 (15mg (n = 1)): 0 n (%) | Mouth ulceration, All (15mg (n = 1)): 0 n (%) | Mouth ulceration, ≥ G3 (15mg (n = 1)): 0 n (%) | Nausea, All (15mg (n = 1)): 0 n (%) | Nausea, ≥ G3 (15mg (n = 1)): 0 n (%) | Oropharyngeal pain, All (15mg (n = 1)): 0 n (%) | Oropharyngeal pain, ≥ G3 (15mg (n = 1)): 0 n (%) | Pain, All (15mg (n = 1)): 0 n (%) | Pain, ≥ G3 (15mg (n = 1)): 0 n (%) | Palmar-plantar erythrodysaesthesia syndrome, All (15mg (n = 1)): 0 n (%) | Palmar-plantar erythrodysaesthesia syndrome, ≥ G3 (15mg (n = 1)): 0 n (%) | Platelet count decreased, All (15mg (n = 1)): 0 n (%) | Platelet count decreased, ≥ G3 (15mg (n = 1)): 0 n (%) | Proteinuria, All (15mg (n = 1)): 0 n (%) | Proteinuria, ≥ G3 (15mg (n = 1)): 0 n (%) | Pyrexia, All (15mg (n = 1)): 0 n (%) | Pyrexia, ≥ G3 (15mg (n = 1)): 0 n (%) | Sinus bradycardia, All (15mg (n = 1)): 0 n (%) | Sinus bradycardia, ≥ G3 (15mg (n = 1)): 0 n (%) | Stomatitis, All (15mg (n = 1)): 0 n (%) | Stomatitis, ≥ G3 (15mg (n = 1)): 0 n (%) | Vomiting, All (15mg (n = 1)): 0 n (%) | Vomiting, ≥ G3 (15mg (n = 1)): 0 n (%) | leukopenia, All (15mg (n = 1)): 1 (100) n (%) | leukopenia, ≥ G3 (15mg (n = 1)): 0 n (%) | neutropenia, All (15mg (n = 1)): 0 n (%) | neutropenia, ≥ G3 (15mg (n = 1)): 0 n (%) | transaminase elevation, All (15mg (n = 1)): 1 (100) n (%) | transaminase elevation, ≥ G3 (15mg (n = 1)): 0 n (%) | Anaemia, All (30mg (n = 1)): 0 n (%) | Anaemia, ≥ G3 (30mg (n = 1)): 0 n (%) | Blood chloride decreased, All (30mg (n = 1)): 0 n (%) | Blood chloride decreased, ≥ G3 (30mg (n = 1)): 0 n (%) | Blood creatinine increased, All (30mg (n = 1)): 0 n (%) | Blood creatinine increased, ≥ G3 (30mg (n = 1)): 0 n (%) | Blood potassium decreased, All (30mg (n = 1)): 0 n (%) | Blood potassium decreased, ≥ G3 (30mg (n = 1)): 0 n (%) | Blood sodium decreased, All (30mg (n = 1)): 0 n (%) | Blood sodium decreased, ≥ G3 (30mg (n = 1)): 0 n (%) | Blood uric acid increased, All (30mg (n = 1)): 0 n (%) | Blood uric acid increased, ≥ G3 (30mg (n = 1)): 0 n (%) | Decreased appetite, All (30mg (n = 1)): 1 (100) n (%) | Decreased appetite, ≥ G3 (30mg (n = 1)): 0 n (%) | Diarrhea, All (30mg (n = 1)): 0 n (%) | Diarrhea, ≥ G3 (30mg (n = 1)): 0 n (%) | Dizziness, All (30mg (n = 1)): 0 n (%) | Dizziness, ≥ G3 (30mg (n = 1)): 0 n (%) | Dry mouth, All (30mg (n = 1)): 0 n (%) | Dry mouth, ≥ G3 (30mg (n = 1)): 0 n (%) | Electrocardiogram QT prolonged, All (30mg (n = 1)): 0 n (%) | Electrocardiogram QT prolonged, ≥ G3 (30mg (n = 1)): 0 n (%) | Electrolyte imbalance, All (30mg (n = 1)): 0 n (%) | Electrolyte imbalance, ≥ G3 (30mg (n = 1)): 0 n (%) | Hemoglobin decreased, All (30mg (n = 1)): 0 n (%) | Hemoglobin decreased, ≥ G3 (30mg (n = 1)): 0 n (%) | Hypertension, All (30mg (n = 1)): 0 n (%) | Hypertension, ≥ G3 (30mg (n = 1)): 0 n (%) | Hyponatremia, All (30mg (n = 1)): 1 (100) n (%) | Hyponatremia, ≥ G3 (30mg (n = 1)): 0 n (%) | Hypoparathyroidism, All (30mg (n = 1)): 0 n (%) | Hypoparathyroidism, ≥ G3 (30mg (n = 1)): 0 n (%) | Mouth ulceration, All (30mg (n = 1)): 0 n (%) | Mouth ulceration, ≥ G3 (30mg (n = 1)): 0 n (%)
